Reference: US11492359B2, “Near-infrared nerve-sparing fluorophores” (OREGON HEALTH & SCIENCE UNIVERSITY, priority 2018, dated 2022)

Key:
[1] = UV-Vis absorption and fluorescence spectroscopy of the Oxazine library; type: physicochemical; settings: for Extinction coefficient: Beer's Law plots; for Quantum yield: relative, references Oxazine 1, Oxazine 170, Rhodamine 101
In short: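 Absorbance measured at room temperature in 1-cm quartz cuvette, reference corrected; extinction coefficient from Beer's Law plots of absorbance vs concentration. Fluorescence spectra corrected for PMT response; relative quantum yields averaged over multiple measurements against Oxazine 1, Oxazine 170 and Rhodamine 101 references.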

[2] = test system: murine brachial plexus and sciatic nerves; experiment: Nerve-specificity screening using direct/topical administration; type: in vivo, mouse; settings: for nerve specificity (N/M contrast vs control group) via direct administration: 125 μM, imaged 30 minutes after staining
Experimental: All reagents were purchased from Sigma Aldrich, Fisher Scientific, TCI, or Ark Pharm. Unless otherwise indicated, all commercially available starting materials were used directly without further purification. Analytical thin layer chromatography (TLC) was performed on Millipore ready-to-use plates with silica gel 60 (F254, 32-63 μm). Flash chromatography was performed on Sorbent Technologies silica gel for column chromatography or on a Biotage Isolera Flash System using SNAP Ultra cartridges. High-resolution mass spectra (HRMS) were measured on a ThermoElectron LTQ-Orbitrap high resolution mass spectrometer with a dedicated Accela HPLC system, or an Agilent 6244 time-of-flight LCMS with diode array detector VL+. LCMS and Purity Characterization Mass-to-charge ratio and purity of the Oxazine compounds were characterized on an Agilent 6244 time-of-flight tandem liquid chromatography mass spectroscopy (LCMS) with diode array detector VL+. Sample (10 μL) was injected into a C18 column (Poroshell 120, 4.6×50 mm, 2.7 micron), and eluted with a solvent system of A (H2O, 0.1% FA) and B (MeCN, 01.% FA) at 0.4 mL/min, from A/B=90/10 to 5/95 over 10 min, maintained at A/B=5/95 for additional 5 min. Ions were detected in positive ion mode by setting the capillary voltage at 4 kV and gas temperature at 350° C. Purity was calculated through area under the curve analysis of the absorbance at 254 nm. UV-Vis Absorption and Fluorescence Spectroscopy. UV-Vis spectra were collected with a Cary 50 UV-Vis spectrophotometer at room temperature, using a 1-cm quartz cuvette. Fluorescence spectra were collected on a Cary Eclipse fluorescence spectrophotometer (Agilent Technologies). All absorbance spectra were reference corrected. Extinction coefficient was calculated from Beer's Law plots of absorbance versus concentration. Fluorescence spectra were corrected for the wavelength dependent response of the R928 photomultiplier tube using a manufacturer generated correction file. Relative quantum yields are reported as the average of multiple measurements using multiple references, including Oxazine 1, Oxazine 170, and Rhodamine 101. Physicochemical Property Calculation. Physicochemical partition coefficients (Log D) values at pH 7.4, number of hydrogen bond donors and acceptors, polar surface area, and the number of rotatable bonds were calculated using Marvin and JChem calculator plugins (ChemAxon, Budapest, Hungary). Nerve-Specificity Screening using Direct/Topical Administration Each compound was screened for its tissue-specificity using a previously published direct/topical administration strategy in murine brachial plexus and sciatic nerves.^1 Each compound from the Oxazine library was formulated in the previously utilized co-solvent formulation (10% DMSO, 5% Kolliphor, 65% serum and 20% phosphate buffered saline) at 125 μM. 100 μL of the formulated Oxazine were incubated on the exposed brachial plexus or sciatic nerve for 5 minutes. The fluorophore containing solution was removed and the area was irrigated with saline 18 times to remove any unbound fluorophore. Co-registered fluorescence and color images were collected of each stained area 30 minutes after Oxazine direct/topical administration using a custom built macroscopic imaging system with 620/60 nm excitation and 700/75 nm bandpass emission filters. Custom written MatLab code was used to analyze the tissue specific fluorescence where regions of interest were selected on the nerve, muscle and adipose tissue using the white light images. These regions of interest were then analyzed on the co-registered matched fluorescence images permitting assessment of the nerve to muscle and nerve to adipose ratios in blinded manner. […]

[3] = test system: murine brachial plexus and sciatic nerves; experiment: Nerve-specificity screening using systemic administration; type: in vivo; settings: for nerve specificity / nerve contrast (N/M vs control group) following systemic administration: 200 nmol, 4 hours prior to imaging

SMILES | Max Abs [1] [nm] | Max Em [1] [nm] | Max Ex [1] [nm] | Extinction coefficient [1] [M⁻¹ cm⁻¹] | Quantum yield [1] [%] | nerve specificity (N/M contrast vs control group) via direct administration [2] | nerve specificity / nerve contrast (N/M vs control group) following systemic administration ([3]; IV) | toxicity upon systemic administration ([3]; IV, mice) | N/M and N/A ratios vs unstained control animals ([2]; direct administration) | N/M and N/A ratios vs unstained control animals ([3]; systemic administration)
CCC/N=c1/cc2oc3cc(NCCC)c(C)cc3nc-2cc1C [LGW01-64, (Z)—N-(2,8-dimethyl-7-(propylamino)-3H-phenoxazin-3-ylidene)propan-1-aminium] | 620 | 638 | 620 | 50166 | 42.15 | positive nerve specificity | negative for nerve contrast | toxic upon systemic administration | – | –
CC[N+](CC)=c1ccc2nc3ccc(N4CCCC4)cc3oc-2c1 [LGW03-07, N-ethyl-N-(7-(pyrrolidin-1-yl)-3H-phenoxazin-3-ylidene)ethanaminium] | 654 | 672 | 660 | 52356 | 9.28 | negative nerve specificity | positive | – | – | –
CC[N+](CC)=c1ccc2nc3cc(C)c(N)cc3oc-2c1 [LGW06-11, N-(7-amino-8-methyl-3H-phenoxazin-3-ylidene)-N-ethylethanaminium] | 628 | 650 | 625 | 31843 | 2.52 | positive nerve specificity | negative for nerve contrast | – | – | –
CCN(CC)c1cc2oc3cc(=[N+](CC)CC)ccc-3nc2cc1C [LGW03-23, N-(7-(diethylamino)-8-methyl-3H-phenoxazin-3-ylidene)-N-ethylethanaminium] | 664 | 690 | 645 | 23099 | 1.53 | positive nerve specificity | negative for nerve contrast | – | – | –
c1c2c(cc3c1N=c1cc4c(cc1O3)=NCC4)NCC2 [LGW07-55, 2,3,7,8-tetrahydro-1H-dipyrrolo[3,2-b:2′,3′-i]phenoxazin-9-ium] | 619 | 634 | 620 | 20163 | 28.25 | positive nerve specificity | negative for nerve contrast | – | – | –
CC/N=c1/cc2oc3cc4c(cc3nc-2cc1C)C(C)=CC(C)(C)N4CC [LGW03-57, (Z)—N-(1-ethyl-2,2,4,8-tetramethyl-1,2-dihydro-9H-pyrido[3,2-b]phenoxazin-9-ylidene)ethanaminium] | 661 | 680 | 665 | 54072 | 18.17 | positive nerve specificity | negative for nerve contrast | – | – | –
CC/N=c1/cc2oc3cc(NCC)c(F)cc3nc-2cc1F [LGW05-91, (Z)—N-(7-(ethylamino)-2,8-difluoro-3H-phenoxazin-3-ylidene)ethanaminium] | 606 | 626 | 610 | 16763 | 33.45 | positive nerve specificity | negative for nerve contrast | – | – | –
CC/N=c1/cc2oc3cc(N)ccc3nc-2cc1C [LGW06-97, (Z)—N-(7-amino-2-methyl-3H-phenoxazin-3-ylidene)ethanaminium] | 599 | 617 | 600 | 38616 | 25.39 | positive nerve specificity | negative for nerve contrast | – | – | –
CCCNc1cc2oc3cc(=[N+](CC)CC)ccc-3nc2cc1C [LGW04-31, N-ethyl-N-(8-methyl-7-(propylamino)-3H-phenoxazin-3-ylidene)ethanaminium] | 641 | 661 | 640 | 59586 | 5.01 | high nerve specificity | high nerve specificity | – | significantly higher N/M and N/A ratios than unstained control animals | significantly higher N/M and N/A ratios than unstained control animals
CC/N=c1/cc2oc3cc4c(cc3nc-2cc1C)CCN4 [LGW05-85, (Z)—N-(7-methyl-2,3-dihydropyrrolo[3,2-b]phenoxazin-8(1H)-ylidene)ethanaminium] | 613 | 640 | 615 | 45382 | 41.05 | positive nerve specificity | negative for nerve contrast | – | – | –
